Reference: patent US8691281B2, “Solid pharmaceutical composition containing 6-oxo-6,7,8,9,10,11-hexahydrocyclohepta (C)chromen-3-yl sulfamate and polymorphs thereof” (Ipsen Pharma S.A.S., priority 2009, dated 2014)

Key:
Assay type in all cases: physicochemical
[1] = Chemical stability at 150° C. by HPLC
Procedure: A stability study was carried out at 150° C. between compound 1 of form III and the compound 1 described in patent EP 880514. This chemical stability of compound 1 is studied using HPLC
(§1) The operating conditions of the HPLC method are the following: • column: Interchim UP3HDO-15XS, 150×4.6 mm,
(§2) • detection: 205 nm, • injection: 20 microliters, • temperature: 40° C., • solution injected: 0.5 mg·mL^−1 (acetonitrile)

[2] = Chemical stability at 100° C. by HPLC
Procedure: A stability study was carried out at 100° C. between variety I of compound 1 and the compound 1 described in patent EP 880514. The chemical stability of compound 1 is studied using HPLC with different scores.
as §1, §2

[3] = Biopharmaceutical Classification System (BCS) class
Excerpt: Compound 1 belongs to Class 2 of the Biopharmaceutical Classification System or BCS proposed by G. Amidon (cf. G. L. Amidon et al., “A theoretical basis for a biopharmaceutical drug classification: the correlation of in vitro drug dissolution and in vivo bioavailability”, Pharm. Res. 12 (1995) 413-420). Its absorption, and therefore its bioavailability, thus strongly depend on the dissolution rate of the pharmaceutical form administered.

[4] = Particle size distribution (Malvern Mastersizer S laser granulometer)
Procedure: • Wavelength: 1.54056 Cu, voltage 40 KV, intensity 40 mA • Measurement range: 3°-30°2 theta • Interval: 0.04°2 theta • Duration of the interval: 4s • Fixed slots: 1.6 mm • Kβ filter (Ni) • Without internal reference • EVA software (v 12.0) for data processing Smart Apex Bruker diffractometer, two-dimensional detector • SMART software for determination of the parameters and orientation of the crystal matrix • SAINT software for data integration and processing • WinGX software for determination of the space group and the structural resolution 6.1.2 DSC • Netzsch DSC 204F1 • Aluminium crucible and pierced lid • Atmosphere: Helium • Initial temperature: 20° C. • Final temperature: 200° C. • Temperature gradient: 5° C.·min^−1 6.1.3 IR • KBr pellet • Bruker IFS28 type spectrometer • Spectral range: 400-4000 cm^−1 6.1.4 NMR of the solid • Bruker Avance 500 MHz spectrometer • MAS (Magic Angle Spinning) 4 mm probe • Bruker XwinNMR software • VACP (Variable Amplitude Cross-Polarization) with MAS (11 kHz) and proton decoupling (spinal 64, 65 kHz) • External reference: Adamantane 6.1.5 Particle Size Distribution • Malvern Mastersizer S laser granulometer • Size of the sample: 30 to 50 mg • Dispersion medium: 0.50% (m/v) Nonidet in water • Mie theory with as refractive indices: particle RI=1.55; imaginary RI=1.00; dispersant RI=1.38 • Sonication time: 60 seconds • Sonication energy: 50 to 60 Hz • Recirculation time: 30 seconds at 2000 rpm^−1 • Obscuration: 15-25% 6.2 Characterization of the Examples 6.2.1 Examples 5 and 5b

[5] = Conversion experiments between the polymorphic forms; conditions: after heating, return to ambient temperature
Procedure: The applicant has carried out conversion experiments between the different polymorphic forms of compound 1 which have shown that form III is the form which is stable at a high temperature (T>145° C.). This significant property makes it possible, by heating under vacuum, to eliminate traces of solvent (Polymorphism in the Pharmaceutical Industry, Wiley 2006, Ed Hilfiker; Wiley, ISBN: 978-3-527-31146-0).

SMILES	HPLC Purity ([2]; T0)	HPLC Purity ([2]; T1 day at 100° C.)	HPLC Purity ([2]; T2 days at 100° C.)	HPLC Purity ([2]; T3 days at 100° C.)	HPLC Purity ([2]; T7 days at 100° C.)	particle size distribution D10(%) [4]	particle size distribution D50(%) [4]	particle size distribution D90(%) [4]	also measured
NS(=O)(=O)Oc1ccc2c3c(c(=O)oc2c1)CCCCC3 [Compound 1 Patent EP 880514, 6-oxo-6,7,8,9,10,11-hexahydrocyclohepta[c]chromen-3-yl sulphamate, reference compound]	99.6%	99.1%	98.8%	98.7%	98.0%				HPLC Purity ([1]; T0 (start of stability study at 150° C.)): 99.6%; HPLC Purity ([1]; T2 hours at 150° C.): 7.3%
NS(=O)(=O)Oc1ccc2c3c(c(=O)oc2c1)CCCCC3 [Compound 1, 6-oxo-6,7,8,9,10,11-hexahydrocyclohepta[c]chromen-3-yl sulphamate]									Biopharmaceutical Classification System (BCS) class [3]: Class 2
NS(=O)(=O)Oc1ccc2c3c(c(=O)oc2c1)CCCCC3 [Example 2-2]						1.2 μm	5.2 μm	11.0 μm	
NS(=O)(=O)Oc1ccc2c3c(c(=O)oc2c1)CCCCC3 [Example 3]						0.6 μm	3.1 μm	13.7 μm	
NS(=O)(=O)Oc1ccc2c3c(c(=O)oc2c1)CCCCC3 [Variety I of compound 1, 6-oxo-6,7,8,9,10,11-hexahydrocyclohepta[c]chromen-3-yl sulphamate]	99.6%	99.6%	99.7%	99.7%	99.7%				
NS(=O)(=O)Oc1ccc2c3c(c(=O)oc2c1)CCCCC3 [form III, 6-oxo-6,7,8,9,10,11-hexahydrocyclohepta[c]chromen-3-yl sulphamate]									HPLC Purity ([1]; T0 (start of stability study at 150° C.), listed as Compound 1 of form III): 99.4%; HPLC Purity ([1]; T2 hours at 150° C., listed as Compound 1 of form III): 41.2%; behaviour of the form on returning to ambient temperature [5]: remains unchanged
